This note sets out measurements from US20220380319A1 (Bial - R&D Investments, S.A., priority 2019, published 2022).

In brackets after ≈: the same amount, converted by molar mass.

Series [1] deals with T1, acid ceramidase (Homo sapiens, UniProt Q13510).
T1 construct: Cell lysates overexpressing acid ceramidase were used as the enzyme source; expressed in transfected cells
T1 sequence (Q13510 22-395): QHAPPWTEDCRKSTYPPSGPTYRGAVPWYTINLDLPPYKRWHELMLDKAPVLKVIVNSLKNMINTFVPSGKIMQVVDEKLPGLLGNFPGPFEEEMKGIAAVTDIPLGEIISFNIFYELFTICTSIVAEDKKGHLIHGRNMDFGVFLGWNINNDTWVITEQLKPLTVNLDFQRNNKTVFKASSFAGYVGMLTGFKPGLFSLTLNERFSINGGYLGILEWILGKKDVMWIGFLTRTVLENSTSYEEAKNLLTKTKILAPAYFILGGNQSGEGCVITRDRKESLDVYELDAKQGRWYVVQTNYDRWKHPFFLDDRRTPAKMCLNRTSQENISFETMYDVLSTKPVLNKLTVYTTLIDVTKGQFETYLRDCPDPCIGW
The series can be described thus: Acid ceramidase inhibition, biochemical fluorescent assay with cell lysates overexpressing acid ceramidase, substrate Rbm14-12. The note with it: substrate Rbm14-12 6.3 μM, pH 4.5, 1 hr preincubation at RT. Summed up: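 IC50 derived by four-parameter fitting of fluorescence (ex360 nm, em446 nm) produced after 1 hr in methanol/NaIO4/glycine stop buffer, pH 10.6. Reaction: 6.3 μM Rbm14-12, 1 hr RT, following 1 hr RT compound preincubation with 10 μg overexpressing-cell lysate protein in pH 4.5 NaAC/NaCl buffer.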

A short description of series [2]: Compound solubility in water.

What is called IC50 is the concentration that inhibits the measured activity by half. Lower therefore signals inhibition by little substance. By solubility is commonly meant the concentration that dissolves in the medium under given conditions. Read a high solubility as a readily soluble substance.

The molecule `CCCCNC(=O)n1cnc2cc(N3CCC(N4CCOCC4)CC3)ccc21` [Example 101b, N-butyl-5-(4-morpholinopiperidin-1-yl)-1H-benzo[d]imidazole-1-carboxamide] displayed an IC50 in series [1] below 200 nM. The amount in solution in series [2] (solubility) came to 7.5 µg/mL (≈ 19.5 µM).
For `CCCCNC(=O)n1cnc2ccc(N3CCC(N4CCN(C)CC4)CC3)cc21` [Example 102a, N-Butyl-6-(4-(4-methylpiperazin-1-yl)piperidin-1-yl)-1H-benzo[d]imidazole-1-carboxamide], in that order: below 200 nM and 34.8 µg/mL (≈ 87.3 µM).
For `CCCCNC(=O)n1cnc2cc(N3CCC(N4CCN(C)CC4)CC3)ccc21` [Example 102b, N-butyl-5-(4-(4-methylpiperazin-1-yl)piperidin-1-yl)-1H-benzo[d]imidazole-1-carboxamide], in that order: 200 to 1000 nM and 36.1 µg/mL (≈ 90.6 µM).
In turn, `CC(C)CCNC(=O)n1cnc2ccc(-c3cncnc3)cc21` [Example 103a, N-iso-Pentyl-6-(pyrimidin-5-yl)-1H-benzo[d]imidazole-1-carboxamide] returned an IC50 in series [1] below 200 nM. In series [2], this molecule yielded a solubility of 14.3 µg/mL (≈ 46.2 µM).
The matching figures for `CC(C)CCNC(=O)n1cnc2cc(-c3cncnc3)ccc21` [Example 103b, N-iso-pentyl-5-(pyrimidin-5-yl)-1H-benzo[d]imidazole-1-carboxamide]: below 200 nM and 11.9 µg/mL (≈ 38.5 µM).
For `CC(C)CCNC(=O)n1c(=O)n(C)c2cccnc21` [Example 104, N-iso-Pentyl-1-methyl-2-oxo-1,2-dihydro-3H-imidazo[4,5-b]pyridine-3-carboxamide], in that order: 200 to 1000 nM and 17 µg/mL (≈ 64.8 µM).
For `CC(C)CCNC(=O)n1c(=O)n(C)c2ncccc21` [Example 105, N-iso-Pentyl-3-methyl-2-oxo-2,3-dihydro-1H-imidazo[4,5-b]pyridine-1-carboxamide], in that order: above 1000 nM and 17.4 µg/mL (≈ 66.3 µM).
As for `COc1nc2ccc(-c3cncnc3)cc2n1C(=O)NCCC(C)C` [Example 106, N-iso-Pentyl-2-methoxy-6-(pyrimidin-5-yl)-1H-benzo[d]imidazole-1-carboxamide], the IC50 in series [1] is 200 to 1000 nM. Besides, the solubility in series [2] worked out at 13.7 µg/mL (≈ 40.4 µM).
Regarding `CC(C)CCNC(=O)n1cnc2ccccc21` [Example 107, N-iso-Pentyl-1H-benzo[d]imidazole-1-carboxamide], in series [1], the IC50 was below 200 nM. Besides, the concentration in solution in series [2] (solubility) came to 13.9 µg/mL (≈ 60.1 µM).
Consider `CCCCNC(=O)n1cnc2c(C3CCN(C)CC3)cc(C)cc21` [Example 107a], for which the IC50 in series [1] was 200 to 1000 nM. In series [2], the concentration in solution (solubility) came to 31.7 µg/mL (≈ 96.5 µM).
For `Cc1ccc(CCNC(=O)n2cnc3ccccc32)cc1` [Example 108, N-(4-Methylphenethyl)-1H-benzo[d]imidazole-1-carboxamide], in that order: below 200 nM and 6.8 µg/mL (≈ 24.3 µM).
The matching figures for `CCC(C)NC(=O)n1c(OC)nc2ccc(-c3cncnc3)cc21` (stereo not drawn) [Example 109a, N-(sec-Butyl)-2-methoxy-6-(pyrimidin-5-yl)-1H-benzo[d]imidazole-1-carboxamide]: above 1000 nM and 28.7 µg/mL (≈ 88.2 µM).
The matching figures for `CCC(C)NC(=O)n1c(OC)nc2cc(-c3cncnc3)ccc21` (stereo not drawn) [Example 109b, N-(sec-butyl)-2-methoxy-5-(pyrimidin-5-yl)-1H-benzo[d]imidazole-1-carboxamide]: above 1000 nM and 32.4 µg/mL (≈ 99.6 µM).
Molecule `CC(C)CCNC(=O)n1c(=O)n(C)c2ncc(-c3cccnc3)cc21` [Example 110, N-iso-Pentyl-3-methyl-2-oxo-6-(pyridin-3-yl)-2,3-dihydro-1H-imidazo[4,5-b]pyridine-1-carboxamide] gave an IC50 in series [1] above 1000 nM. Further, in series [2], the concentration in solution (solubility) was 18 µg/mL (≈ 53 µM).
For `COc1nc2ccc(-c3cncnc3)cc2n1C(=O)NC1CCCCC1` [Example 111a, N-Cyclohexyl-2-methoxy-6-(pyrimidin-5-yl)-1H-benzo[d]imidazole-1-carboxamide], in that order: below 200 nM and 6 µg/mL (≈ 17.1 µM).
For `COc1nc2cc(-c3cncnc3)ccc2n1C(=O)NC1CCCCC1` [Example 111b, N-cyclohexyl-2-methoxy-5-(pyrimidin-5-yl)-1H-benzo[d]imidazole-1-carboxamide], in that order: below 200 nM and 22 µg/mL (≈ 62.6 µM).
For `Cc1cc(C2CCN(C)CC2)c2ncn(C(=O)NCCC(C)C)c2c1` [Example 112a], in that order: 200 to 1000 nM and 22.9 µg/mL (≈ 66.9 µM).
Molecule `CC(C)CCNC(=O)n1cnc2c(C3CCN(C)CC3)cc(Cl)cc21` [Example 112b] displayed an IC50 in series [1] of 200 to 1000 nM. The solubility in series [2] worked out at 20 µg/mL (≈ 55.1 µM).
In the case of `CCOc1nc2ncccc2n1C(=O)NCCC(C)C` [Example 114, 2-Ethoxy-N-iso-pentyl-1H-imidazo[4,5-b]pyridine-1-carboxamide], in series [1], the IC50 is 200 to 1000 nM. This molecule also displayed a solubility in series [2] of 16.8 µg/mL (≈ 60.8 µM).
In series [1], `COc1cccc2c1nc(OC)n2C(=O)NCCC(C)C` [Example 115, N-iso-Pentyl-2,4-dimethoxy-1H-benzo[d]imidazole-1-carboxamide] had an IC50 above 1000 nM. The molecule further gave a solubility in series [2] of 15.4 µg/mL (≈ 52.9 µM).
For the molecule `CCOc1nc2c(OC)cccc2n1C(=O)NCCC1CC1` [Example 116, N-(2-Cyclopropylethyl)-2-ethoxy-4-methoxy-1H-benzo[d]imidazole-1-carboxamide], the IC50 in series [1] is above 1000 nM. The solubility in series [2] came out at 14.1 µg/mL (≈ 46.5 µM).
For `CCC(C)CNC(=O)n1c(OC)nc2c(OC)cccc21` (stereo not drawn) [Example 117, 2,4-Dimethoxy-N-(2-methylbutyl)-1H-benzo[d]imidazole-1-carboxamide], in that order: 200 to 1000 nM and 23.4 µg/mL (≈ 80.3 µM).
The matching figures for `CC(C)CCNC(=O)n1cnc2c(N3CCOCC3)cccc21` [Example 118, N-iso-Pentyl-4-morpholino-1H-benzo[d]imidazole-1-carboxamide]: 200 to 1000 nM and 21 µg/mL (≈ 66.4 µM).
In series [1], `CC(C)CCNC(=O)n1cnc2c(N3CCN(C)CC3)cccc21` [Example 119, N-iso-Pentyl-4-(4-methylpiperazin-1-yl)-1H-benzo[d]imidazole-1-carboxamide] displayed an IC50 of 200 to 1000 nM. The molecule further showed a solubility in series [2] of 23 µg/mL (≈ 69.8 µM).
For `CC(C)CCNC(=O)n1c(OCCN(C)C)nc2ccccc21` [Example 120, 2-(2-(Dimethylamino)ethoxy)-N-iso-pentyl-1H-benzo[d]imidazole-1-carboxamide], in that order: below 200 nM and 21 µg/mL (≈ 66 µM).
`COc1cccc2c1ncn2C(=O)NCCC1CC1` [Example 121, N-(2-Cyclopropylethyl)-4-methoxy-1H-benzo[d]imidazole-1-carboxamide] registered an IC50 in series [1] of 200 to 1000 nM. In addition, in series [2], the solubility turned out to be 22.6 µg/mL (≈ 87.2 µM).
On to `COc1nc2cc(-c3cccnc3)cnc2n1C(=O)NCCCCc1ccccc1` [Example 122, 2-Methoxy-N-(4-phenylbutyl)-6-(pyridin-3-yl)-3H-imidazo[4,5-b]pyridine-3-carboxamide], for which, in series [1], the 50% inhibitory concentration (IC50) was below 200 nM. This molecule came in with a solubility in series [2] of 0.04 µg/mL (≈ 0.0996 µM).
With `CC(C)CNC(=O)n1c(=O)n(C)c2ccc(-c3cccnc3)cc21` [Example 123, N-iso-Butyl-3-methyl-2-oxo-6-(pyridin-3-yl)-2,3-dihydro-1H-benzo[d]imidazole-1-carboxamide], the IC50 in series [1] was above 1000 nM. This molecule also showed a solubility in series [2] of 0.6 µg/mL (≈ 1.85 µM).
In series [1], `O=C(NCCc1ccccc1)n1c(=O)[nH]c2cccnc21` [Example 124, 2-Oxo-N-phenethyl-1H-imidazo[4,5-b]pyridine-3(2H)-carboxamide] yielded an IC50 above 1000 nM. The same molecule returned a solubility in series [2] of 4 µg/mL (≈ 14.2 µM).
In series [1], `CSc1nc2cc(-c3cccnc3)cnc2n1C(=O)NCC(C)C` [Example 125] showed an IC50 of 200 to 1000 nM. In addition, the concentration in solution in series [2] (solubility) came to 6 µg/mL (≈ 17.6 µM).
The matching figures for `CC(C)CNC(=O)n1cnc2cc(-c3cncs3)ccc21` [Example 126a, N-iso-Butyl-5-(thiazol-5-yl)-1H-benzo[d]imidazole-1-carboxamide]: below 200 nM and 6 µg/mL (≈ 20 µM).
In turn, `CC(C)CNC(=O)n1cnc2ccc(-c3cncs3)cc21` [Example 126b, N-iso-butyl-6-(thiazol-5-yl)-1H-benzo[d]imidazole-1-carboxamide] showed an IC50 in series [1] of 200 to 1000 nM. This molecule also gave a solubility in series [2] of 14 µg/mL (≈ 46.6 µM).
The matching figures for `CCn1c(=O)n(C(=O)NCCc2ccccc2)c2ncccc21` [Example 127, 1-Ethyl-2-oxo-N-phenethyl-1H-imidazo[4,5-b]pyridine-3(2H)-carboxamide]: 200 to 1000 nM and 23 µg/mL (≈ 74.1 µM).
In series [1], `[2H]c1nc2ccccc2n1C(=O)NCCc1ccccc1` [Example 128, N-Phenethyl-1H-benzo[d]imidazole-2-d-1-carboxamide] had an IC50 below 200 nM. Also, the solubility in series [2] came out at 15 µg/mL (≈ 56.3 µM).
Molecule `N#Cc1cccc2c1ncn2C(=O)NCCCCc1ccccc1` [Example 130, 4-Cyano-N-(4-phenylbutyl)-1H-benzo[d]imidazole-1-carboxamide] showed an IC50 in series [1] below 200 nM. In series [2], this molecule showed a solubility of 1.3 µg/mL (≈ 4.08 µM).
The matching figures for `N#Cc1cccc2c1ncn2C(=O)NCCCOc1ccccc1` [Example 131, 4-Cyano-N-(3-phenoxypropyl)-1H-benzo[d]imidazole-1-carboxamide]: below 200 nM and 5 µg/mL (≈ 15.6 µM).
